Tests used:
Type in all cases: biochemical
p110δ/p85α = p110δ/p85α (Homo sapiens, UniProt O00329); experiment: Transcreener KINASE Assay, kinase inhibition of p110δ/p85α; conditions: for PI3Kδ IH % @ 1 uM: 1 uM test compound; for IC50: read-out: PI3Kδ IC50
Outline: (§1)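 Steps: compound (2% DMSO final) plus enzyme in HEPES/NaCl/EGTA/CHAPS/3 mM MgCl2/1 mM DTT buffer; start with PIP2/ATP addition (30 uM/10 uM solution); 80 min RT; add ADP detection mix, 60 min RT; read fluorescence polarization.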

p110β/p85α = p110β/p85α (Homo sapiens, UniProt P42338); experiment: Transcreener KINASE Assay, kinase inhibition of p110β/p85α; conditions: for PI3Kβ IH % @ 1 uM: 1 uM test compound; for IC50: read-out: PI3Kβ IC50
Sequence of p110β/p85α (P42338 whole entry): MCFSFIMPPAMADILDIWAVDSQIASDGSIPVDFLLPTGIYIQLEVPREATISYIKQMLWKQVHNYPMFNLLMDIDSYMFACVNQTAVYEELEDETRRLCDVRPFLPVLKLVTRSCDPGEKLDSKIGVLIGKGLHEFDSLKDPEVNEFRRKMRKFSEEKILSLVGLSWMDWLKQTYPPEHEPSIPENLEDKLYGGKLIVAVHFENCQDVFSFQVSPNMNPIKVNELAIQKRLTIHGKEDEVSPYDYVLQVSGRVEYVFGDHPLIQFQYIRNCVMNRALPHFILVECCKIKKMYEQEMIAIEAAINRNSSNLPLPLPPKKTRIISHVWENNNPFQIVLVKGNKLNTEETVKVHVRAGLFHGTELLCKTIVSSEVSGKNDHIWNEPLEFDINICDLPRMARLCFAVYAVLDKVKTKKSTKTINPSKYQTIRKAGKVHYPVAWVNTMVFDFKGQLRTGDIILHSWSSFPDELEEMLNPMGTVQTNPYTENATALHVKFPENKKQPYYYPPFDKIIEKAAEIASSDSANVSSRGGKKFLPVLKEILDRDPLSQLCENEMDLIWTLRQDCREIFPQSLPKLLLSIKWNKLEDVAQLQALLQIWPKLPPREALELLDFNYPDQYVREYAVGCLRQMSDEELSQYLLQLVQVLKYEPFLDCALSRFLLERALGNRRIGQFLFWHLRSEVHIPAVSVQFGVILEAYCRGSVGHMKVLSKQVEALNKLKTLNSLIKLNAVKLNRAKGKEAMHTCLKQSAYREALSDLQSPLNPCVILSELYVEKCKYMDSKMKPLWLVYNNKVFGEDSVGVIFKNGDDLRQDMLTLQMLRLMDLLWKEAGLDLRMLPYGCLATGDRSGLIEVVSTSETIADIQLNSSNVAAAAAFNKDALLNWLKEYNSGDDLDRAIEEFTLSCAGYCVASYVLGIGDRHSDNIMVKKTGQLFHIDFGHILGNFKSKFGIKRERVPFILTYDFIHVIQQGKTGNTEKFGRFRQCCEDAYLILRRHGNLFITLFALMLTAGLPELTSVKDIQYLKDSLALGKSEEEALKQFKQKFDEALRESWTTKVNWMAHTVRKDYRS
Sequence of p110β/p85α (P27986 2-724 partner): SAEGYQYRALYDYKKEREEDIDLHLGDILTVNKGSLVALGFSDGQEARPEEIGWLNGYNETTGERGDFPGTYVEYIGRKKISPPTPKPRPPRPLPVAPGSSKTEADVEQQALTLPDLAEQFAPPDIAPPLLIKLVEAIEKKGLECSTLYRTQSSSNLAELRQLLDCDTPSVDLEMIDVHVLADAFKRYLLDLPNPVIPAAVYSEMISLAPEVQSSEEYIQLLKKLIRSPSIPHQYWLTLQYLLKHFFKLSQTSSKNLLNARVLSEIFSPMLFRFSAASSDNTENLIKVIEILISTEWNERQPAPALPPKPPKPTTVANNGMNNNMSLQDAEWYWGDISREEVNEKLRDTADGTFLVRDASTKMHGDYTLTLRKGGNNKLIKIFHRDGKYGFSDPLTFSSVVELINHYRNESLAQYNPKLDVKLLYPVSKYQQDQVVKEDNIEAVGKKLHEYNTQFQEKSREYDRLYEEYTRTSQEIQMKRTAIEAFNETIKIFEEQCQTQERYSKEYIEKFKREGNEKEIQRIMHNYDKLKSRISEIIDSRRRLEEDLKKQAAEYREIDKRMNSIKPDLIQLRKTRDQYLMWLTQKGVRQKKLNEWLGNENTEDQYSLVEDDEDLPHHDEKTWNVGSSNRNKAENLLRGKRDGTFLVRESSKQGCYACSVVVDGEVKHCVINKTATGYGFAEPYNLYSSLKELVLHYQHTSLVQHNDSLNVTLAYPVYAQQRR
Outline: as §1

p110γ = p110γ (Homo sapiens, UniProt P48736); experiment: Transcreener KINASE Assay, kinase inhibition of p110γ; conditions: for PI3Kγ IH % @ 1 uM: 1 uM test compound; for IC50: read-out: PI3Kγ IC50
Sequence of p110γ (P48736 whole entry): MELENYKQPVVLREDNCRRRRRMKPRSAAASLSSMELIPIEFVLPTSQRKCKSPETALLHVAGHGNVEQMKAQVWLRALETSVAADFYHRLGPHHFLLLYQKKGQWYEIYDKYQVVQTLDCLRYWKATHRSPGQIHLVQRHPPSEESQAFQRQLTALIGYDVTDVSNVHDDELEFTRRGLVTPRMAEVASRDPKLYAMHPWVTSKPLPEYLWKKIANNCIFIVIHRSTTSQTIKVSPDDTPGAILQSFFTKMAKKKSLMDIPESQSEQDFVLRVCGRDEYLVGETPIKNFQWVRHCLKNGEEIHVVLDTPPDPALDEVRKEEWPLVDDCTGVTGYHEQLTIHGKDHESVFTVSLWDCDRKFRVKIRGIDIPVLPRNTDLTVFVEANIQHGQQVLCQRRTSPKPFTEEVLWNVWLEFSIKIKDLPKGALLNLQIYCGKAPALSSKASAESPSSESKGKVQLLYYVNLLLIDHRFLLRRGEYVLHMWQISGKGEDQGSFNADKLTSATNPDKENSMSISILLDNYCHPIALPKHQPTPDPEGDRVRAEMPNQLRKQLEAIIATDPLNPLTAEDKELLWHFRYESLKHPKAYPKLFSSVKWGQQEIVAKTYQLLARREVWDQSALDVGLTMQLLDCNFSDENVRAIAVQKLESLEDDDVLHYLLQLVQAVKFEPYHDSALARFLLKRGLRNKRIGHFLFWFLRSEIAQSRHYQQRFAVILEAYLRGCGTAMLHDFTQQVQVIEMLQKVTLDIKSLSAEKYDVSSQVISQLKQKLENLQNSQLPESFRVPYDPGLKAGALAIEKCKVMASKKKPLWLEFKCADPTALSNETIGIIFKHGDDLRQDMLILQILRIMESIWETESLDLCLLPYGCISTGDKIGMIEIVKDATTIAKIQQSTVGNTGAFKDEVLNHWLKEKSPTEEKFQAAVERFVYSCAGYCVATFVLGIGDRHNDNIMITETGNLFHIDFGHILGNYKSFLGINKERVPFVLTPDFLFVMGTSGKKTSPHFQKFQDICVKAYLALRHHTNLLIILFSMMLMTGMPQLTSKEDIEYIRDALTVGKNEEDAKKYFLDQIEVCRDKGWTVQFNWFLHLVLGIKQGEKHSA
Outline: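 Homogeneous endpoint format using recombinant enzymes; ADP measured by far-red FP immunoassay after 80 min reaction and 60 min detection, both at room temperature.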

Sequence of p110δ/p85α (O00329 whole entry): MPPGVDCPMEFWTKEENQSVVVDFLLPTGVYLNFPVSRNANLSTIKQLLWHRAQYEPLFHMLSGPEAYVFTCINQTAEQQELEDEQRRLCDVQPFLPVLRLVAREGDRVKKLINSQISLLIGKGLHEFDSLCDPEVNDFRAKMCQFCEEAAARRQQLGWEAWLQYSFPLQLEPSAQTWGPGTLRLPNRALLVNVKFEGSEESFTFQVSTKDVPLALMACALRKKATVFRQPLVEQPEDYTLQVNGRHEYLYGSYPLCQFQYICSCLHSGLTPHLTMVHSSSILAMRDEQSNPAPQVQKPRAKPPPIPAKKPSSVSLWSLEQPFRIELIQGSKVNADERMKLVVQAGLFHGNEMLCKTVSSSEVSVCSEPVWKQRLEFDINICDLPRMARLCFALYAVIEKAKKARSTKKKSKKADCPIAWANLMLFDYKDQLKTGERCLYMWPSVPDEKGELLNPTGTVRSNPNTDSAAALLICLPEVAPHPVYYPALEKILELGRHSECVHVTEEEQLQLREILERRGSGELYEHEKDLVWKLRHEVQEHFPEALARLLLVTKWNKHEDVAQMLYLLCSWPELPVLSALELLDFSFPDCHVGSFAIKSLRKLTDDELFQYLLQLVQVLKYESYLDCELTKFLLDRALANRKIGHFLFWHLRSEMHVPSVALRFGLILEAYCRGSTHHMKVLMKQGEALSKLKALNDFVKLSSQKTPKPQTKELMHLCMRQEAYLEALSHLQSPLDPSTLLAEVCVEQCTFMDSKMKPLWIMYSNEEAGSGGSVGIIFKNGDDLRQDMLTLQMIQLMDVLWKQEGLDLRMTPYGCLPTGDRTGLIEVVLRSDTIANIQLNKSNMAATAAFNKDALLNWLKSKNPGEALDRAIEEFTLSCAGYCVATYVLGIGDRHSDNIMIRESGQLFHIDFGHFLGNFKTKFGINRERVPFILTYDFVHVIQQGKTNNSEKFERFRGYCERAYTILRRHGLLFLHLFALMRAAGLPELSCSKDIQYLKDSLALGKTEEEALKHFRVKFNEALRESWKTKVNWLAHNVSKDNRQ
Sequence of p110δ/p85α (P27986 whole entry partner): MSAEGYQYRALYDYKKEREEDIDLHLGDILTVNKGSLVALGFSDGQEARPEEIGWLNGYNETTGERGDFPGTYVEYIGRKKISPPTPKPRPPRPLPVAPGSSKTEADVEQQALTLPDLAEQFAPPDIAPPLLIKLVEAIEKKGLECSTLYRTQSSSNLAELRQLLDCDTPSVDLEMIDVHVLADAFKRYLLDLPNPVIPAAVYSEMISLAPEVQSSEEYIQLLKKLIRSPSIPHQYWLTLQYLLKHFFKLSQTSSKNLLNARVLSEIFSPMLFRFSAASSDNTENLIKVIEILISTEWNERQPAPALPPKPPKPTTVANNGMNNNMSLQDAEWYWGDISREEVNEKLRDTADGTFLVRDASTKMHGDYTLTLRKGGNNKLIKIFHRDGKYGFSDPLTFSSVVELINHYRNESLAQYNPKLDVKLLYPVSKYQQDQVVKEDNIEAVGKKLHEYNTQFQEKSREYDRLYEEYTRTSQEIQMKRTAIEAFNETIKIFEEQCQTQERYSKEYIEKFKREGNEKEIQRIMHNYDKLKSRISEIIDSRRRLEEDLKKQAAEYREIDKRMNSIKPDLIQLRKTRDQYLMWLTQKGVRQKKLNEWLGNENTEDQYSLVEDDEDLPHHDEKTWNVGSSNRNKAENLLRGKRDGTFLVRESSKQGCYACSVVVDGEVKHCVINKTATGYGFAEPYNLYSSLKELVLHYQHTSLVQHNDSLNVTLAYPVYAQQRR

PI3Kδ IH % @ 1 uM (p110δ/p85α) | IC50 (p110δ/p85α) | PI3Kβ IH % @ 1 uM (p110β/p85α) | IC50 (p110β/p85α) | PI3Kγ IH % @ 1 uM (p110γ) | IC50 (p110γ) | Compound
>100% |  | 58.9% |  | 83.5% |  | CC(Nc1ncnc2[nH]cnc12)c1cn2ccc(Cl)c2c(=O)n1-c1cc(F)cc(F)c1 (stereo not shown) [Compound 80]
>100% | 1 nM | 96.3% | 54 nM | >100% | 5 nM | N#Cc1c[nH]c2ncnc(N3C[C@@H](F)C[C@H]3c3nn4ccc(F)c4c(=O)n3-c3ccccc3)c12 [Compound 225]
15.7% |  | 11.1% |  | 62.2% |  | CN(C)C(=O)c1cnc(N)nc1N1CC[C@H]1c1nn2ccc(Cl)c2c(=O)n1-c1ccccc1 [Compound 281]
97.6% | 3 nM | 81.5% | 262 nM | 90.4% | 2 nM | N#Cc1cnc(N)nc1N1C[C@@H](F)C[C@H]1c1nn2ccc(Cl)c2c(=O)n1-c1ccccc1 [Compound 229]
98.7% | 18 nM | 59.8% |  | >100% | 75 nM | Cc1nc(N2CCC[C@H]2c2nn3ccc(F)c3c(=O)n2-c2ccccc2)c2nc[nH]c2n1 [Compound 239]
>100% | 51 nM | 15.0% |  | 82.3% | 116 nM | N#Cc1c[nH]c2ncnc(N3CCC[C@H]3c3nn4ccc(C(N)=O)c4c(=O)n3-c3ccccc3)c12 [Compound 140]

Second part, the compound before the results:

Compound | PI3Kδ IH % @ 1 uM (p110δ/p85α) | IC50 (p110δ/p85α) | PI3Kβ IH % @ 1 uM (p110β/p85α) | IC50 (p110β/p85α) | PI3Kγ IH % @ 1 uM (p110γ) | IC50 (p110γ)
NC(=O)c1c[nH]c2ncnc(N3CCC[C@H]3c3nn4ccc(Cl)c4c(=O)n3-c3ccccc3)c12 [Compound 95] | 97.6% | 1 nM | 82.0% | 36 nM | >100% | 7 nM
C[S+]([O-])c1c[nH]c2ncnc(N3CC[C@H]3c3nn4ccc(Cl)c4c(=O)n3-c3ccccc3)c12 (stereo partly shown) [Compound 196] | 97.1% | 69 nM | 32.3% |  | >100% | 65 nM
C#Cc1ccn2nc([C@@H]3CCN3c3ncnc4[nH]cc(C#N)c34)n(-c3ccccc3)c(=O)c12 [Compound 105, (S)-4-(2-(5-ethynyl-4-oxo-3-phenyl-3,4-dihydropyrrolo[2,1-f][1,2,4]triazin-2-yl)azetidin-1-yl)-7H-pyrrolo[2,3-d]pyrimidine-5-carbonitrile] | 90.0% | 15 nM | 16.0% |  | 90.4% | 80 nM
N#Cc1c[nH]c2ncnc(N3CCC[C@H]3c3nn4ccc(CO)c4c(=O)n3-c3ccccc3)c12 [Compound 179] | >100% | 2 nM | 51.5% |  | 97.9% | 15 nM
Cc1nc(N)nc(N2CC[C@H]2c2nn3ccc(C#N)c3c(=O)n2-c2ccccc2)c1C#N [Compound 497, (S)-2-(1-(2-amino-5-cyano-6-methylpyrimidin-4-yl)azetidin-2-yl)-4-oxo-3-phenyl-3,4-dihydropyrrolo[2,1-f][1,2,4]triazine-5-carbonitrile] | >100% | 6 nM | 67.6% |  | 91.1% | 11 nM
CC(=O)c1c[nH]c2ncnc(N[C@@H](C)c3cn4ccc(F)c4c(=O)n3-c3ccccc3)c12 [Compound 406, (S)-3-(1-((5-acetyl-7H-pyrrolo[2,3-d]pyrimidin-4-yl)amino)ethyl)-8-fluoro-2-phenylpyrrolo[1,2-a]pyrazin-1(2H)-one] | 90.0% | 73 nM | 7.7% |  | 35.2% | 

— patent US20150307520A1, “NOVEL HETEROARYL AND HETEROCYCLE COMPOUNDS, COMPOSITIONS AND METHODS THEREOF” (HUTCHISON MEDIPHARMA LIMITED, priority 2012, published 2015)
